Laboratory results from US6087371A, “Heterocyclyl-ergoline derivatives as 5-HT1A receptor ligands” (Pharmacia & Upjohn S.p.A., priority 1996, dated 2000).
Where two headings read alike, the source gives them in different places.

Tests used:
[1] = molecular target: T1, 5-HT1A receptor (Rattus norvegicus, UniProt P19327); assay: Affinity for serotonin 1A (5-HT1A) receptor, 3H-8-OH-DPAT binding test
T1 construct: Freezed hippocampus dissected out from rats were homogenized; from tissue; host or cells: rat hippocampus, crude synaptosomal membranes
T1 sequence (P19327 1-422): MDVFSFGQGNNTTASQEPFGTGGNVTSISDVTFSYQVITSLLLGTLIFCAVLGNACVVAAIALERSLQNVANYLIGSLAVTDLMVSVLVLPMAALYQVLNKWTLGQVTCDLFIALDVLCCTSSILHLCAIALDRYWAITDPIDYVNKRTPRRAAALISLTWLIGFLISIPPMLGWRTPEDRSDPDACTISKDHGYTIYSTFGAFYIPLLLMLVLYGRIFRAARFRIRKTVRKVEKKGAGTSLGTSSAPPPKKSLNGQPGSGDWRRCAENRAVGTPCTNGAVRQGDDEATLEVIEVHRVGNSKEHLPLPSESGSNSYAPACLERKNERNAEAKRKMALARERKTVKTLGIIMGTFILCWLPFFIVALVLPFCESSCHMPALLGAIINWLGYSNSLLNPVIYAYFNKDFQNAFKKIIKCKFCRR
Method: Affinity for serotonin 1A (5-HT1A) receptor [^3 H-8-Hydroxy-2-dipropylaminotetralin (^3 H-8-OH-DPAT)binding test]
Preparation of crude synaptosome fraction and binding assay were conducted in accordance with the method reported in Journal of Neurochemistry, vol 44, page 1685, 1985 by Hall et al. Freezed hippocampus dissected out from rats were homogenized in 40 volumes of ice cold 50 mM Tris-HCl buffer (pH. 7.4) and the suspension was centrifuged at 500× g for 10 minutes at 0° C.
The supernatant was centrifuged at 40,000× g for 20 minutes at 0° C. and the resulting pellet was homogenized in 40 volumes of the above buffer and incubated at 37° C. for 10 minutes. After completion of reaction, the suspension was centrifuged at 40,000× g for 20 minutes at 0° C. The resulting pellet was washed twice by resuspension in 40 volumes of the above buffer and centrifugation, and finally suspended in 60 volumes of ice-cold 50 mM Tris-HCI buffer (pH 7.4) containing 1 mM manganese chloride for use in the next assay.
To the aliquots ([…]) of synaptosome membranes solution were added 50 ml of tritiated 8-OH-DPAT solution at the terminal concentration of 0.2 nM and 50 ml of test compound solution or 50 ml of its medium, and incubated at 37° C. for 10 minutes. Then to the mixture was added 5 ml of ice-cold 50 mM Tris-HCI buffer (pH 7.4) rapidly vacuum-filtered through Whatman^R GF/B filters and washed twice with 5 ml of the same buffer. The radioactivity of the residue remaining on the filters was measured by liquid scintillation counter. Nonspecific binding was determined under the presence of 10^-5 M serotonin (5-HT). 50% Inhibition concentration (IC50) of the test compound was graphically determined.

[2] = molecular target: T2, 5-HT2 receptor (Rattus norvegicus, UniProt P14842); assay: Affinity for serotonin 2 (5-HT2) receptor, 3H-Ketanserin binding test
T2 construct: Freezed cerebral cortex dissected out from rats were homogenized; from tissue; host or cells: rat cerebral cortex, crude synaptosomal membranes
Method: Affinity for serotonin 2(5-HT2)receptor (^3 H-Ketanserin binding test).
The supernatant was centrifuged at 40,000× g for 20 minutes at 0° C. and the resulting pellets was homogenized in 30 volumes of ice-cold 50 mM Tris-HCI buffer (pH.7.7) and incubated at 37° C. for 10 minutes. The suspension was centrifuged at 40,000× g for 20 minutes at 0° C. again. The resulting pellet was homogenized in 100 volumes of the above buffer and provided as synaptosome membranes solution for the next assay.
To the aliquots (900 m) of synaptosome membranes solution were added 50 ml solution of ^3 H-Ketanserin solution at the terminal concentration of […] and 50 ml of test compound or its medium, and incubated at 37° C. for 20 minutes. After completion of the reaction, the mixture was rapidly vacuum-filtered through Whatman^R GF/B filters. The filters were washed three times with 5 ml of the above buffer, and then the radioactivity of the residue remaining on the filters was measured by liquid scintillation counter. Non specific binding was determined under the presence of […] of mianserin.

[3] = molecular target: T3, D2 receptor (Rattus norvegicus, UniProt P61169); assay: Affinity for dopamine 2 (D2) receptor, 3H-Spiperone binding test; settings: rat corpus striatum, 3H-Spiperone 0.2 nM, 37° C. 20 minutes; read-out: D2 affinity expressed as IC50
T3 construct: Freezed corpus striatum dissected out from rats were homogenized; from tissue; host or cells: rat corpus striatum, crude synaptosomal membranes
Method: Affinity for dopamine 2 (D2)receptor (^3 H-Spiperone binding test.)
Preparation of crude synaptosome fraction and binding assays were conducted in accordance with the method reported in European Journal of Pharmacology, vol 46, page 377,1977 by I.Creese et al. Freezed corpus striatum dissected out from rats were homogenized in 100 volumes of ice cold 50 mM Tris-HCl buffer (pH.7.7) and the suspension was centrifuged at 500× g for 10 minutes at 0° C.
The supernatant was centrifuged at 50,000× g for 15 minutes at 0° C. and the resulting pellet was homogenized in 100 volumes of the above buffer and then the suspension was centrifuged at 50,000× g for 15 minutes at 0° C. again. The resulting pellet was homogenized in 150 volumes of 50 mM Tris-HCl buffer (PH 7.1) containing 120 mM potassium chloride, 2 mM calcium chloride, 1 mM magnesium chloride, 0,1 ascorbic acid and […] pargyline. The suspension was incubated at 37° C. for 10 minutes and then provided as synaptosome membranes solution for the next assays. To the aliquots (900 m) of synaptosome membranes solution were added 50 ml of H-Spiperone solution at the terminal concentration of 0.2 nM and 50 ml of test compound solution or 50 ml of its medium, and incubated at 37° C. for 20 minutes. After completion of the reaction, the mixture was rapidly vacuum-filtered through Whatman^R GF/B filters. The filters were washed three times with 5 ml of the above buffer, and then the radioactivity of the residue remaining on the filters was measured by liquid scintillation counter. Nonspecific binding was determined under presence of […] of L)-Sulpiride 50% Inhibition concentration (IC50) of the test compound was graphically determined.

[4] = molecular target: D1 receptor; assay: Affinity for D1 receptor (method not described); assay type: binding; settings: read-out: D1 affinity expressed as IC50
[5] = tested on: PKC; assay: PKC translocation in hippocampal synaptosomes (Western blot); assay type: cell-based; settings: 15 min at 30° C., control = 100, dose not given
Method: PKC translocation in different brain's area
Purified synaptosomes have been obtained following the procedure described by Dunkley (Dunkley P. R., Health J. W:, Harrison S. M., Jarvie P. E., Glenfield P. J. and Rostas J. A. P.
A rapid percolation gradient procedure for isolation of synaptosomes directly from Si fraction: homogeneity and morphology of subcellular fractions. Brain res 441:59-71, 1988).
Synaptosomes purified from cortex, hippocampus were incubated (10 mg/ml) for 15 min at 30° C. in presence of increasing doses of the compounds of the present invention dissolved in tartaric acid (pH 7.0) or of the vehicle alone.
After incubation, purified synaptosomes were collected in cold Krebs buffer containing 10 mM EGTA and then processed according to Shearmann et al (Shearman M. S., Shinomura T., Oda T. and Nishizuka Y. Protein kinase C subspecies in adult rat hippocampal synaptosomes. Activation by diacylglycerol and arachidonic acid. FEBS Lett 279:261-264, 1991).
Synaptosomes have been lysed in this solution for 30 min at 4° C. with stirring. […]
PKC on Western blots was detected with a polyclonal total PKC antibody (Upstate Biotechnology). […] Antigen antibody complexes were detected by enhanced chemiluminescence. Results have been analysed by computer assisted Image analysis and expressed as per cent of PKC translocation in control conditions.

[6] = rat hippocampus, 3H-8-OH-DPAT 0.2 nM, 37° C. 10 minutes, read-out: 5-HT1A affinity expressed as IC50

T3 sequence (P61169 whole entry): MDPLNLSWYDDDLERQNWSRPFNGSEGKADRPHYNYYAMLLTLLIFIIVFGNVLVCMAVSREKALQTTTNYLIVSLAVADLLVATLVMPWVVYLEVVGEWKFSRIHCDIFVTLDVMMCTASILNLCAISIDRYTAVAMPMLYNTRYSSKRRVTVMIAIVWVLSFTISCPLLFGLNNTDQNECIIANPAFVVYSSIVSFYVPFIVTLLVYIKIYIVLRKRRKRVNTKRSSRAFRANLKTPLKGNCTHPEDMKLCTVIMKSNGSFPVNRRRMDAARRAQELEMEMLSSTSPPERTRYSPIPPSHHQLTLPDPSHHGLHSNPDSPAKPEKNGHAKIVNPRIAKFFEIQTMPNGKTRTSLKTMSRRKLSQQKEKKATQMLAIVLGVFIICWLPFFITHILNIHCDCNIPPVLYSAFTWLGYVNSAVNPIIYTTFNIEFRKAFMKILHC
T2 sequence (P14842 whole entry): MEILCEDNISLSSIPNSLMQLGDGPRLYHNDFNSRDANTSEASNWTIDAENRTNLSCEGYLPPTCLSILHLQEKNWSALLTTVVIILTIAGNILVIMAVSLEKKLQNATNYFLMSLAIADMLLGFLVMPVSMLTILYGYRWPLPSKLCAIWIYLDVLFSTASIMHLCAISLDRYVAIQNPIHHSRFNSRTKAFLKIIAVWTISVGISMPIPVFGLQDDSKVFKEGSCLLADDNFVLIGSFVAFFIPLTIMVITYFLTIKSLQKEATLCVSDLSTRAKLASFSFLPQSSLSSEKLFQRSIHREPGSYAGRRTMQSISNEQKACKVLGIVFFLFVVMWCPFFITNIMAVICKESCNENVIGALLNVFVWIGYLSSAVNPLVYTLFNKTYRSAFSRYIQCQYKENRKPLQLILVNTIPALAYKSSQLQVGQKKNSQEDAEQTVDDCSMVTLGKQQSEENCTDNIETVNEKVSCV

Structure (SMILES): CO[C@]12C[C@@H](Cc3noc(-c4cncc(Br)c4)n3)CN(C)[C@@H]1Cc1cn(C)c3cccc2c13 [Example 2, 1,6-Dimethyl-8β-methyl-[5-(5-bromo-pyridin-3-yl)-1,2,4-oxadiazol-3-yl]-10α-methoxy-ergoline]
- IC50 [1, 6]: 200 nM
- IC50 [2]: 2400 nM
- IC50 [3]: 3640 nM

Structure (SMILES): CO[C@]12C[C@@H](Cc3nnc(-c4cncc(Br)c4)o3)CN(C)[C@@H]1Cc1cn(C)c3cccc2c13 [Example 10, 1,6-Dimethyl-8β-methyl-[2-(5-bromo-pyridin-3-yl)-1,3,4-oxadiazol-5-yl]-10α-methoxy-ergoline]
- IC50 [1]: 11 nM
- IC50 [2]: 890 nM
- IC50 [3]: 2510 nM

Structure (SMILES): CO[C@]12C[C@@H](c3nnc(-c4cncc(Br)c4)o3)CN(C)[C@@H]1Cc1cn(C)c3cccc2c13 [Example 8, 1,6-Dimethyl-8β-[2-(5-bromo-pyridin-3-yl)-1,3,4-oxadiazol-5-yl]-10α-methoxy-ergoline]
- IC50 [1]: 9 nM
- IC50 [2]: 27 nM
- IC50 [3]: 1950 nM
- IC50 [4]: 2040 nM

Structure (SMILES): CO[C@]12C[C@@H](Cc3nc(-c4cncc(Br)c4)no3)CN(C)[C@@H]1Cc1cn(C)c3cccc2c13 [Example 4, 1,6-Dimethyl-8β-methyl-[3-(5-bromo-pyridin-3-yl)-1,2,4-oxadiazol-5-yl]-10α-methoxy-ergoline]
- IC50 [1, 6]: 300 nM
- IC50 [2]: 3400 nM
- IC50 [3]: 2930 nM
- PKC translocation in hippocampal synaptosomes, expressed as per cent of PKC translocation in control conditions [5]: 126 per cent
